Data from US9572343B2, “Active compound combinations” (BAYER CROPSCIENCE AG, priority 2012, dated 2017).
Like-named read-outs stand apart in the source and are kept apart here.

Experiments:
Assay type in all cases: in vivo
[1] = tested on: Alternaria solani; test: Alternaria test (tomatoes)/preventive
Method: (§1) Solvent: 24.5 parts by weight of acetone • 24.5 parts by weight of dimethylacetamide
(§2) Emulsifier: 1 part by weight of alkylaryl polyglycol ether
(§3) To produce a suitable preparation of active compound, 1 part by weight of active compound is mixed with the stated amounts of solvent and emulsifier, and the concentrate is diluted with water to the desired concentration.
(§4) To test for preventive activity, young plants are sprayed with the preparation of active compound at the stated rate of application. After the spray coating has dried on, the plants are inoculated with an aqueous spore suspension of Alternaria solani. The plants are then placed in an incubation cabinet at approximately 20° C. and a relative atmospheric humidity of 100%.
The test is evaluated 3 days after the inoculation. 0% means an efficacy which corresponds to that of the untreated control while an efficacy of 100% means that no disease is observed.

[2] = tested on: Leptosphaeria nodorum; test: Leptosphaeria nodorum test (wheat)/preventive; details: Table C1
Method: (§5) Solvent: 49 parts by weight of N,N-dimethylacetamide Emulsifier: 1 part by weight of alkylaryl polyglycol ether To produce a suitable preparation of active compound, 1 part by weight of active compound or active compound combination is mixed with the stated amounts of solvent and emulsifier, and the concentrate is diluted with water to the desired concentration. To test for preventive activity, young plants are sprayed with the preparation of active compound or active compound combination at the stated rate of application. After the spray coating has been dried, the plants are sprayed with a spore suspension of Leptosphaeria nodorum.

[3] = tested on: Phakopsora pachyrhizi; test: Phakopsora test (soybeans)/preventive; details: for pest or weed control at 1 ppm: Table D2, application rate 1 ppm a.i.
[4] = tested on: Septoria tritici; test: Septoria tritici-test (wheat)/preventive; details: Table F1
Method: as §5, with “Septoria tritici.” for “Leptosphaeria nodorum.”

[5] = tested on: Venturia inaequalis; test: Venturia test (apples)/preventive; details: Table I1
Method: (§6) Solvent: 24.5 parts by weight of acetone • 24.5 parts by weight of dimethylacetamide Emulsifier: 1 part by weight of alkylaryl polyglycol ether To produce a suitable preparation of active compound, 1 part by weight of active compound is mixed with the stated amounts of solvent and emulsifier, and the concentrate is diluted with water to the desired concentration. To test for preventive activity, young plants are sprayed with the preparation of active compound at the stated rate of application.

[6] = tested on: Blumeria graminis f.sp. hordei; test: Blumeria test (barley)/preventive; details: Table B1
Method: Solvent: 49 parts by weight of N,N-dimethylacetamide Emulsifier: 1 part by weight of alkylaryl polyglycol ether To produce a suitable preparation of active compound, 1 part by weight of active compound or active compound combination is mixed with the stated amounts of solvent and emulsifier, and the concentrate is diluted with water to the desired concentration. To test for preventive activity, young plants are sprayed with the preparation of active compound or active compound combination at the stated rate of application. After the spray coating has been dried, the plants are dusted with spores of Blumeria graminis f.sp. hordei.

[7] = tested on: Pyrenophora teres; test: Pyrenophora teres-test (barley)/preventive; details: Table E1
Method: Solvent: 49 parts by weight of N,N-dimethylacetamide
as §2
To produce a suitable preparation of active compound, 1 part by weight of active compound or active compound combination is mixed with the stated amounts of solvent and emulsifier, and the concentrate is diluted with water to the desired concentration.
To test for preventive activity, young plants are sprayed with the preparation of active compound or active compound combination at the stated rate of application.
After the spray coating has been dried, the plants are sprayed with a spore suspension of Pyrenophora teres. The plants remain for 48 hours in an incubation cabinet at approximately 20° C. and a relative atmospheric humidity of approximately 100%.
The plants are placed in the greenhouse at a temperature of approximately 20° C. and a relative atmospheric humidity of approximately 80%.
The test is evaluated 8 days after the inoculation. 0% means an efficacy which corresponds to that of the untreated control, while an efficacy of 100% means that no disease is observed.

[8] = tested on: Sphaerotheca fuliginea; test: Sphaerotheca test (cucumbers)/preventive; details: Table G1
Method: as §6, with “application. After the spray coating has dried on, the plants are inoculated with an aqueous spore suspension of Sphaerotheca fuliginea.” for “application.”

[9] = tested on: Uromyces appendiculatus; test: Uromyces test (beans)/preventive; details: for pest or weed control at 0.5 ppm: application rate 0.5 ppm a.i.; for pest or weed control at 2 ppm: application rate 2 ppm a.i.
Method: as §1, §2, §3
as §4, with “the causal agent of bean rust (Uromyces appendiculatus) and” for “Alternaria solani. The plants are”, “remain for 1 day” for “placed”
The plants are then placed in a greenhouse at approximately 21° C. and a relative atmospheric humidity of approximately 90%.
The test is evaluated 10 days after the inoculation. 0% means an efficacy which corresponds to that of the untreated control, while an efficacy of 100% means that no disease is observed.

[10] = Phakopsora pachyrhizi, 168 h, Table D1, application rate 0.5 ppm a.i., read-out: Efficacy in % found
[11] = Table A2, application rate 5 ppm a.i.
[12] = Uromyces appendiculatus, 240 h, Table H2, read-out: Efficacy in % found
[13] = Table A1, application rate 0.5 ppm a.i.
[14] = Table D1, application rate 0.5 ppm a.i.
[15] = Table H1, application rate 0.25 ppm a.i.
[16] = Phakopsora pachyrhizi, 168 h, read-out: Efficacy in % found
[17] = Table A3, application rate 20 ppm a.i.
[18] = Table H3, application rate 20 ppm a.i.

COC(=O)N(OC)c1ccccc1COc1ccn(-c2ccc(Cl)cc2)n1 [3.17, pyraclostrobin]
Efficacy in % found ([1]; Table A1, application rate 1 ppm a.i.): 28% | Efficacy in % found ([2]; application rate 20 ppm a.i.): 50% | pest or weed control at 0.25 ppm ([3]; Phakopsora pachyrhizi, 168 h, Table D1, application rate 0.25 ppm a.i., read-out: Efficacy in % found): 0% | Efficacy in % found ([4]; application rate 20 ppm a.i.): 0% | Efficacy in % found ([5]; application rate 1 ppm a.i.): 23%

CC(C)c1ccc(Cl)cc1CN(C(=O)c1c(C(F)F)nn(C)c1F)C1CC1 [15.151, N-(5-chloro-2-isopropylbenzyl)-N-cyclopropyl-3-(difluoromethyl)-5-fluoro-1-methyl-1H-pyrazole-4-carboxamide]
Efficacy in % found ([6]; application rate 20 ppm a.i.): 20% | pest or weed control at 0.5 ppm [3, 10]: 0% | Efficacy in % found ([7]; application rate 20 ppm a.i.): 86%

CC(C1CC1)C(O)(Cn1cncn1)c1ccc(Cl)cc1 (stereo not shown) [1.5, cyproconazole]
Efficacy in % found [1, 11]: 23% | Efficacy in % found ([4]; application rate 80 ppm a.i.): 0% | Efficacy in % found ([8]; application rate 1.25 ppm a.i.): 52% | pest or weed control at 0.5 ppm [9, 12]: 50%

CC1(C)CCC(Cc2ccc(Cl)cc2)C1(O)Cn1cncn1 (stereo not shown) [1.30, metconazole]
Efficacy in % found ([2]; application rate 40 ppm a.i.): 30% | pest or weed control at 2 ppm [9, 12]: 30%

Cn1cc(C(=O)Nc2ccc(F)cc2-c2ccc(Cl)c(Cl)c2)c(C(F)F)n1 [2.1, bixafen]
Efficacy in % found [1, 13]: 43% | Efficacy in % found [3, 14]: 0% | Efficacy in % found ([7]; application rate 80 ppm a.i.): 86% | Efficacy in % found [9, 15]: 30% | Efficacy in % found ([5]; application rate 1 ppm a.i.): 36%

CC1CC(C)(C)c2cccc(NC(=O)c3cn(C)nc3C(F)F)c21 (stereo not shown) [2.32, 3-(difluoromethyl)-1-methyl-N-(1,1,3-trimethyl-2,3-dihydro-1H-inden-4-yl)-1H-pyrazole-4-carboxamide]
Efficacy in % found [1, 13]: 18% | Efficacy in % found ([6]; application rate 80 ppm a.i.): 20% | pest or weed control at 0.5 ppm [3, 16]: 15% | Efficacy in % found ([7]; application rate 80 ppm a.i.): 0% | pest or weed control at 0.25 ppm ([9]; Uromyces appendiculatus, 240 h, read-out: Efficacy in % found): 75% | Efficacy in % found ([5]; application rate 1 ppm a.i.): 39%

CON=C(C(=O)OC)c1ccccc1CON=C(C)c1cccc(C(F)(F)F)c1 [3.22, trifloxystrobin]
Efficacy in % found [1, 11]: 45% | Efficacy in % found ([2]; application rate 20 ppm a.i.): 40% | Efficacy in % found ([4]; application rate 20 ppm a.i.): 71% | Efficacy in % found ([5]; application rate 0.25 ppm a.i.): 66%

CO/C=C(/C(=O)OC)c1ccccc1Oc1cc(Oc2ccccc2C#N)ncn1 [3.3, azoxystrobin]
Efficacy in % found [1, 11]: 35% | Efficacy in % found ([3]; Table D3, application rate 0.5 ppm a.i.): 68% | Efficacy in % found ([7]; application rate 20 ppm a.i.): 57% | Efficacy in % found ([5]; application rate 0.5 ppm a.i.): 88%

Cn1cc(C(=O)Nc2ccccc2-c2cc(F)c(F)c(F)c2)c(C(F)F)n1 [2.8, fluxapyroxad]
Efficacy in % found [1, 13]: 58% | Efficacy in % found ([6]; application rate 40 ppm a.i.): 30% | Efficacy in % found [3, 14]: 0% | Efficacy in % found ([7]; application rate 80 ppm a.i.): 57% | Efficacy in % found [9, 15]: 0%

Fc1ccc([C@]2(Cn3cncn3)O[C@H]2c2ccccc2Cl)cc1 (racemic) [1.12, epoxiconazole]
Efficacy in % found ([2]; application rate 40 ppm a.i.): 60% | pest or weed control at 0.5 ppm [3, 10]: 23% | Efficacy in % found ([4]; application rate 40 ppm a.i.): 14% | Efficacy in % found ([8]; application rate 1 ppm a.i.): 0% | pest or weed control at 0.5 ppm [9, 12]: 30%

CC(C)CC(C)c1sccc1NC(=O)c1cn(C)nc1C(F)(F)F (stereo not shown) [2.21, penthiopyrad]
Efficacy in % found [1, 13]: 27% | Efficacy in % found ([6]; application rate 80 ppm a.i.): 20% | pest or weed control at 0.5 ppm [3, 10]: 0% | pest or weed control at 0.25 ppm ([9]; Uromyces appendiculatus, 240 h, Table H1, application rate 0.25 ppm a.i., read-out: Efficacy in % found): 30%

CO/N=C(/C1=NOCCO1)c1ccccc1Oc1ncnc(Oc2ccccc2Cl)c1F [3.12, fluoxastrobin]
Efficacy in % found ([7]; application rate 20 ppm a.i.): 16% | pest or weed control at 0.5 ppm [9, 12]: 65% | Efficacy in % found ([5]; application rate 0.5 ppm a.i.): 30%

Cn1cc(C(=O)Nc2cccc3c2[C@@H]2CC[C@H]3C2=C(Cl)Cl)c(C(F)F)n1 (racemic) [2.29, benzovindiflupyr]
Efficacy in % found [1, 13]: 40% | Efficacy in % found ([6]; application rate 40 ppm a.i.): 0% | Efficacy in % found [3, 14]: 8% | Efficacy in % found ([7]; application rate 40 ppm a.i.): 0%

O=C(NCCc1ncc(C(F)(F)F)cc1Cl)c1ccccc1C(F)(F)F [2.6, fluopyram]
Efficacy in % found ([1]; Table A1, application rate 2 ppm a.i.): 34% | Efficacy in % found ([6]; application rate 40 ppm a.i.): 0% | pest or weed control at 2 ppm ([3]; Phakopsora pachyrhizi, 168 h, Table D1, application rate 2 ppm a.i., read-out: Efficacy in % found): 0% | Efficacy in % found ([7]; application rate 40 ppm a.i.): 57% | pest or weed control at 1 ppm ([9]; Uromyces appendiculatus, 240 h, Table H1, application rate 1 ppm a.i., read-out: Efficacy in % found): 15%

propineb [5.29]
Efficacy in % found [1, 17]: 12% | Efficacy in % found ([3]; Table D3, application rate 20 ppm a.i.): 0% | Efficacy in % found ([4]; application rate 400 ppm a.i.): 29% | Efficacy in % found ([8]; application rate 20 ppm a.i.): 71% | Efficacy in % found [9, 18]: 56% | Efficacy in % found ([5]; application rate 5 ppm a.i.): 14%

CO/C=C(/C(=O)OC)c1ccccc1COc1cccc(C(F)(F)F)n1 [3.16, picoxystrobin]
Efficacy in % found ([6]; application rate 40 ppm a.i.): 50% | Efficacy in % found ([3]; Table D1, application rate 0.25 ppm a.i.): 8% | Efficacy in % found ([7]; application rate 40 ppm a.i.): 71% | Efficacy in % found ([9]; Table H2, application rate 2.5 ppm a.i.): 65%

chlorothalonil [5.4]
Efficacy in % found [1, 17]: 8% | Efficacy in % found ([4]; application rate 160 ppm a.i.): 0% | Efficacy in % found ([8]; application rate 20 ppm a.i.): 29% | Efficacy in % found [9, 18]: 0% | Efficacy in % found ([5]; application rate 20 ppm a.i.): 68%

CC(C)(C)C(O)(CCc1ccc(Cl)cc1)Cn1cncn1 (stereo not shown) [1.47, tebuconazole]
pest or weed control at 1 ppm [3, 16]: 50% | Efficacy in % found ([4]; application rate 80 ppm a.i.): 14%

OC(Cc1ccccc1Cl)(Cn1nc[nH]c1=S)C1(Cl)CC1 (stereo not shown) [1.41, prothioconazole]
Efficacy in % found ([2]; application rate 80 ppm a.i.): 30% | pest or weed control at 1 ppm [3, 16]: 60% | pest or weed control at 2 ppm [9, 12]: 30%
